# Measurements as given in patent US20110288116A1, “IAP INHIBITORS” (TETRALOGIC PHARMACEUITCAL CORPORATION, priority 2008, published 2011).
# Target: T1, cIAP-1 BIR-3 (Homo sapiens, UniProt Q13490)
# T1 construct: "cIAP-1 BIR-3"
# Test: Fluorescence polarization binding to cIAP-1 BIR-3 (competition with AbuRPF-K(5-Fam)-NH2)
# Conditions: cells marked (cIAP-1): cIAP-1 BIR-3; reported as range class
# Protocol: The binding affinities of the compounds are reported as a Kd value. Briefly, various concentrations of test peptides were mixed with 5 nM of the fluorescently labeled peptide (i.e., a mutated N-terminal Smac peptide—AbuRPF-K(5-Fam)-NH2) and 40 nM of the BIR3 for 15 min at RT in […] of 0.1M Potassium Phosphate buffer, pH 7.5 containing […] bovine g-globulin. Following incubation, the polarization values (mP) were measured on a Victor2V (available from PerkinElmer Life Sciences) using a 485 nm excitation filter and a 520 nm emission filter. The reported Kd values are supplied as ranges (A=<0.1 μM, B=0.1 μM to C=>1 μM to 10 μM, D=>10 μM) and, unless otherwise indicated, are the Kd for XIAP BIR-3.
# T1 sequence (Q13490 266-343 limits assumed): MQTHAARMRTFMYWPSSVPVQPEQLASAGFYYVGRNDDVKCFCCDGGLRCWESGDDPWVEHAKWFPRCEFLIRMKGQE
row,Molecule,Kd [nM]
1,CCN[C@@H](C)C(=O)N[C@@H](COC)C(=O)N1CC[C@@H](O)[C@H]1Cc1c(-c2ccc(F)cc2)[nH]c2ccccc12 [FFF],> 100
2,CN[C@@H](C)C(=O)N[C@@H](COC)C(=O)N1CC[C@@H](O)[C@H]1Cc1c(-c2ccc(F)cc2)[nH]c2ccccc12 [HHH],> 100
3,CN[C@H](C(=O)N[C@H](C(=O)N1CC[C@@H](O)[C@H]1Cc1c[nH]c2ccccc12)C1CC1)C1CC1 [QQ′],> 100
4,CCN[C@@H](C)C(=O)N[C@H](C(=O)N1CC[C@@H](O)[C@H]1Cc1c[nH]c2ccccc12)C1CC1 [SS′],> 100
5,CN[C@H](C(=O)N[C@H](C(=O)N1CC[C@@H](O)[C@H]1Cc1c[nH]c2ccccc12)C(C)C)C1CC1 [TT′],> 100
6,CCN[C@@H](C)C(=O)N[C@H](C(=O)N1CC[C@H](OC)[C@H]1Cc1c(Cl)[nH]c2cc(F)ccc12)C(C)C [U′],> 100
7,CC[C@H](NC)C(=O)N[C@H](C(=O)N1CCC[C@H]1Cc1cn(C)c2ncccc12)C(C)(C)C [V],> 100
8,CC[C@H](NC)C(=O)N[C@H](C(=O)N1CC[C@H](OC)[C@H]1Cc1c(Cl)[nH]c2cc(F)ccc12)C(C)C [V′],> 100
9,CN[C@@H](C)C(=O)N[C@H](C(=O)N1C[C@@H](O)C[C@H]1C[C@H]1CN(C(C)=O)c2ccccc21)[C@@H](C)OC [WWW],> 100
10,CCN[C@@H](C)C(=O)N[C@H](C(=O)N1CCC[C@H]1Cc1cn(C)c2ncccc12)C(C)(C)C [W],< 100
11,CN[C@@H](C)C(=O)N[C@H](C(=O)N1CC[C@H](O)[C@H]1Cc1c(Cl)[nH]c2cc(F)ccc12)C1CCCCC1 [W′],< 100
12,CN[C@@H](C)C(=O)N[C@H](C(=O)N1CC[C@@H](O)[C@H]1Cc1c[nH]c2ccccc12)C(C)C [XX′],< 100
13,CN[C@@H](C)C(=O)N[C@H](C(=O)N1CCC[C@H]1Cc1cn(C)c2ncccc12)C(C)(C)C [X],< 100
14,CN[C@@H](C)C(=O)N[C@H](C(=O)N1CC[C@H](O)[C@H]1Cc1c(Cl)[nH]c2cc(F)ccc12)C(C)(C)C [Y′],< 100
15,"CN[C@@H](C)C(=O)N[C@H](C(=O)N1CC[C@H](O)[C@H]1Cc1c[nH]c2ncccc12)C(C)(C)C [Z, N-{1-[3-Hydroxy-2-(1H-pyrrolo[2,3-b]pyridin-3-ylmethyl)-pyrrolidine-1-carbonyl]-2,2-dimethyl-propyl}-2-methylamino-propionamide]",< 100
16,CCc1ccc2c(c1)[C@H](C[C@@H]1C[C@H](O)CN1C(=O)[C@@H](NC(=O)[C@H](C)NC)[C@@H](C)OC)CN2C(C)=O [ZZZ],< 100
17,CCN[C@@H](C)C(=O)N[C@H](C(=O)N1CC[C@@H](O)[C@H]1Cc1c(-c2ccc(F)cc2)[nH]c2ccccc12)C(C)C [ZZ′],< 100
18,CC[C@H](NC)C(=O)N[C@H](C(=O)N1CC[C@H](O)[C@H]1Cc1c(Cl)[nH]c2cc(F)ccc12)C(C)C [Z′],< 100
19,AAAA,> 100
20,EEEE,> 100

# Second part, the molecule after the results:
row,Kd [nM],Molecule
1,< 100,"CN[C@@H](C)C(=O)N[C@H](C(=O)N1CC[C@H](O)[C@H]1Cc1c(Cl)[nH]c2cc(F)ccc12)[C@@H](C)OC [CC′, N-{1-[2-(2-Chloro-6-fluoro-1H-indol-3-ylmethyl)-3-hydroxy-pyrrolidine-1-carbonyl]-2-methoxy-propyl}-2-methylamino-propionamide]"
2,< 100,CCc1ccc2c(c1)[C@@H](C[C@@H]1C[C@H](O)CN1C(=O)[C@@H](NC(=O)[C@H](C)NC)[C@@H](C)OC)CN2C(C)=O [DDDD]
3,< 100,CC[C@H](NC)C(=O)N[C@H](C(=O)N1CC[C@@H](O)[C@H]1Cc1c(-c2ccc(F)cc2)[nH]c2ccccc12)[C@@H](C)O [DDD]
4,< 100,CN[C@@H](C)C(=O)N[C@H](C(=O)N1CC[C@H](O)[C@H]1Cc1c[nH]c2ncccc12)C(C)C [DD]
5,< 100,CCN[C@@H](C)C(=O)N[C@H](C(=O)N1CC[C@@H](O)[C@H]1Cc1c[nH]c2ccccc12)[C@@H](C)O [DD′]
6,< 100,CN[C@@H](C)C(=O)N[C@H](C(=O)N1CC[C@@H](O)[C@H]1Cc1c(-c2ccc(F)cc2)[nH]c2ccccc12)[C@@H](C)O [EEE]
7,< 100,CCN[C@@H](C)C(=O)N[C@H](C(=O)N1CC[C@H](O)[C@H]1Cc1c[nH]c2ncccc12)C(C)C [EE]
8,< 100,CCN[C@@H](C)C(=O)N[C@H](C(=O)N1CC[C@@H](O)[C@H]1Cc1c[nH]c2ccccc12)[C@@H](C)OC [GG′]
9,< 100,CCN[C@@H](C)C(=O)N[C@H](C(=O)N1CC[C@@H](O)[C@H]1Cc1c(-c2ccc(F)cc2)[nH]c2ccccc12)C1CCCCC1 [III]
10,< 100,CCN[C@@H](C)C(=O)N[C@H](C(=O)N1CC[C@@H](O)[C@H]1Cc1c[nH]c2ccccc12)C1CCCCC1 [JJ′]
11,< 100,CC[C@H](NC)C(=O)N[C@H](C(=O)N1CC[C@@H](O)[C@H]1Cc1c[nH]c2ccccc12)C1CCCCC1 [KK′]
12,< 100,CCN[C@@H](C)C(=O)N[C@H](C(=O)N1CC[C@@H](O)[C@H]1Cc1c(-c2ccc(F)cc2)[nH]c2ccccc12)[C@@H](C)OC [LLL]
13,< 100,CC[C@H](NC)C(=O)N[C@H](C(=O)N1CC[C@@H](O)[C@H]1Cc1c(-c2ccc(F)cc2)[nH]c2ccccc12)[C@@H](C)OC [MMM]
14,< 100,CN[C@H](C(=O)N[C@H](C(=O)N1CC[C@@H](O)[C@H]1Cc1c[nH]c2ccccc12)C(C)(C)C)C1CC1 [MM′]
15,< 100,CC[C@H](NC)C(=O)N[C@H](C(=O)N1CC[C@@H](O)[C@H]1Cc1c[nH]c2ccccc12)C(C)(C)C [NN′]
16,< 100,CCN[C@@H](C)C(=O)N[C@H](C(=O)N1CC[C@@H](O)[C@H]1Cc1c[nH]c2ccccc12)C(C)(C)C [OO′]
17,< 100,"CN[C@@H](C)C(=O)N[C@H](C(=O)N1C[C@@H](O)C[C@H]1C(=O)c1c[nH]c2cc(F)ccc12)C(C)(C)C [PPP, N-{1-[2-(6-Fluoro-1H-indole-3-carbonyl)-4-hydroxy-pyrrolidine-1-carbonyl]-2,2-dimethyl-propyl}-2-methylamino-propionamide]"
18,< 100,CN[C@@H](C)C(=O)N[C@H](C(=O)N1CC[C@@H](O)[C@H]1Cc1c[nH]c2ccccc12)C(C)(C)C [PP′]
19,< 100,CN[C@@H](C)C(=O)N[C@H](C(=O)N1C[C@@H](O)C[C@H]1C(=O)c1c[nH]c2cc(F)ccc12)C(C)C [QQQ]
20,< 100,CC[C@H](NC)C(=O)N[C@H](C(=O)N1CC[C@@H](O)[C@H]1Cc1c[nH]c2ccccc12)C1CC1 [RR′]
21,< 100,CN[C@@H](C)C(=O)N[C@H](C(=O)N1C[C@@H](O)C[C@H]1C[C@@H]1CN(C(C)=O)c2ccccc21)C1CCCCC1 [TTT]
22,< 100,CC[C@H](NC)C(=O)N[C@H](C(=O)N1CC[C@@H](O)[C@H]1Cc1c[nH]c2ccccc12)C(C)C [UU′]
23,< 100,CN[C@@H](C)C(=O)N[C@H](C(=O)N1CC[C@@H](O)[C@H]1Cc1c[nH]c2ccccc12)C1CC1 [VV′]
